Values belong to the compound of their own block, whether it stands above or below them.
Legend:
[1] = target: Glycogen synthase kinase-3 beta (Homo sapiens, UniProt P49841); test: Inhibition of human GSK3-beta
[2] = target: Receptor tyrosine-protein kinase erbB-2 (Homo sapiens, UniProt P04626); test: Inhibition of HER2
[3] = Oral bioavailability in rat at 1 mg/kg; format: ADME, organism-based; conditions: in vivo
[4] = target: Inhibitor of nuclear factor kappa-B kinase subunit beta (Homo sapiens, UniProt O14920); test: Inhibition of IKK-beta
[5] = Inhibition of VEGFR
[6] = target: Angiopoietin-1 receptor (Homo sapiens, UniProt Q02763); test: Inhibition of Tie2
[7] = target: Mitogen-activated protein kinase kinase kinase 1 (Homo sapiens, UniProt Q13233); test: Inhibition of MEKK1
[8] = target: Fibroblast growth factor receptor 3 (Homo sapiens, UniProt P22607); test: Inhibition of FGFR3
[9] = Total clearance in rat at 0.1 mg/kg, iv; format: ADME, organism-based; parameters: dose 0.1 mg/kg, route intravenous; conditions: in vivo
[10] = target: Tyrosine-protein kinase Lck (Homo sapiens, UniProt P06239); test: Inhibition of Lck
[11] = target: Cyclin-dependent kinase 1 (Homo sapiens, UniProt P06493); test: Inhibition of CDK1
[12] = target: Aurora kinase B (Homo sapiens, UniProt Q96GD4); test: Inhibition of Aurora B
[13] = target: Hepatocyte growth factor receptor (Homo sapiens, UniProt P08581); test: Inhibition of cMet
[14] = target: Protein kinase C theta type (Homo sapiens, UniProt Q04759); test: Inhibition of PKCtheta
[15] = target: Cyclin-dependent kinase 5 (Homo sapiens, UniProt Q00535); test: Inhibition of CDK5
[16] = target: Dual specificity mitogen-activated protein kinase kinase 1 (Homo sapiens, UniProt Q02750); test: Inhibition of MEK1
[17] = target: Serine/threonine-protein kinase B-raf (Homo sapiens, UniProt P15056); test: Inhibition of BRAF
[18] = target: Mitogen-activated protein kinase 14 (Homo sapiens, UniProt Q16539); test: Inhibition of p38alpha
[19] = AUC in rat at 1 mg/kg, po; format: ADME, organism-based; parameters: dose 1 mg/kg, route oral; conditions: plasma
[20] = target: Casein kinase I isoform delta (Homo sapiens, UniProt P48730); test: Inhibition of CK1delta expressed in Escherichia coli
[21] = target: Cyclin-dependent kinase 2 (Homo sapiens, UniProt P24941); test: Inhibition of CDK2
[22] = Inhibition of PKA expressed in Escherichia coli
[23] = tested on: Rattus norvegicus; test: Volume of distribution at steady state in rat […]; format: ADME, organism-based; conditions: in vivo
[24] = target: Mitogen-activated protein kinase 8 (Homo sapiens, UniProt P45983); test: Inhibition of JNK1
[25] = target: Mitogen-activated protein kinase 3 (Homo sapiens, UniProt P27361); test: Inhibition of ERK1
[26] = target: Proto-oncogene tyrosine-protein kinase Src (Homo sapiens, UniProt P12931); test: Inhibition of SRC
[27] = target: Mast/stem cell growth factor receptor Kit (Homo sapiens, UniProt P10721); test: Inhibition of cKit

Sequence of Glycogen synthase kinase-3 beta (P49841 whole entry): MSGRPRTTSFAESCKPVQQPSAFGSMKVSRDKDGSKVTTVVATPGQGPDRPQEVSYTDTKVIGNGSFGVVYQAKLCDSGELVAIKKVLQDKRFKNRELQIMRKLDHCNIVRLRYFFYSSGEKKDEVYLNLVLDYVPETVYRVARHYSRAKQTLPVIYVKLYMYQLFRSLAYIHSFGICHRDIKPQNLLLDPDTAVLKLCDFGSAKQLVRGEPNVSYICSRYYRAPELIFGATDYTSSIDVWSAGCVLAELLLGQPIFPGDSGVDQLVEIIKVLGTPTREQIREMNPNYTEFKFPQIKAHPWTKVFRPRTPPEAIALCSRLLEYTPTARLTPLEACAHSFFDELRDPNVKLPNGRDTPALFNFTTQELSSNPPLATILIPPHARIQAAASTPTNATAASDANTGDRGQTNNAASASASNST
Sequence of Inhibitor of nuclear factor kappa-B kinase subunit beta (O14920 whole entry): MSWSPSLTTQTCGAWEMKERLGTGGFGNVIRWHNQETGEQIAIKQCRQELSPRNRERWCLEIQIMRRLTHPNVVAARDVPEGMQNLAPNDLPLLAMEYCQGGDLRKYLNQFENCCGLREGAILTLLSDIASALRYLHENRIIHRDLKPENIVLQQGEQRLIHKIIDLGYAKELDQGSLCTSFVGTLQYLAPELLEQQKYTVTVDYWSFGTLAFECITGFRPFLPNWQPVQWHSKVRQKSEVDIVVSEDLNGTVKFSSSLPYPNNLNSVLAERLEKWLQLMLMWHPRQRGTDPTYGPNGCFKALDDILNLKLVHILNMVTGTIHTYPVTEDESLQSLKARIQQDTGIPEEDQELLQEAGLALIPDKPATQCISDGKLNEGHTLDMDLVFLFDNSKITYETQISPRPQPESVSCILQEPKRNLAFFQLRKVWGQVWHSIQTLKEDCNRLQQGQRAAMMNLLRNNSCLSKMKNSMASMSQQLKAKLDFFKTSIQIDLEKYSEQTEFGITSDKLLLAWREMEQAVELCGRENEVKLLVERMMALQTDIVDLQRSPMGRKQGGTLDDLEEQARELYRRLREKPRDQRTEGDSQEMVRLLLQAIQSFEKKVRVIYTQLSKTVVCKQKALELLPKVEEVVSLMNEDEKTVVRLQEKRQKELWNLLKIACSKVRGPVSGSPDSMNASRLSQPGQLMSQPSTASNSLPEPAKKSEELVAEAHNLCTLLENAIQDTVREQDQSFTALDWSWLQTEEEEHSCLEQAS
Sequence of Dual specificity mitogen-activated protein kinase kinase 1 (Q02750 whole entry): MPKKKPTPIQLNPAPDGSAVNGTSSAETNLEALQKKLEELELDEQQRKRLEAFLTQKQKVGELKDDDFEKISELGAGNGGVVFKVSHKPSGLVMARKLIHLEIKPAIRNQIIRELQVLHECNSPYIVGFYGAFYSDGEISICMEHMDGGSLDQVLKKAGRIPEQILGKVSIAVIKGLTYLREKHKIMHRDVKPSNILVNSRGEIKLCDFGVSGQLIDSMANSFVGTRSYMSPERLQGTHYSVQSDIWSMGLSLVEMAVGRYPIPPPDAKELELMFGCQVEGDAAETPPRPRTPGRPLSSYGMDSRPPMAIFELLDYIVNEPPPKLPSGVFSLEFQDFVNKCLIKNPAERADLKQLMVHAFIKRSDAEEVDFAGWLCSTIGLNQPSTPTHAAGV
Sequence of Casein kinase I isoform delta (P48730 whole entry, canonical isoform): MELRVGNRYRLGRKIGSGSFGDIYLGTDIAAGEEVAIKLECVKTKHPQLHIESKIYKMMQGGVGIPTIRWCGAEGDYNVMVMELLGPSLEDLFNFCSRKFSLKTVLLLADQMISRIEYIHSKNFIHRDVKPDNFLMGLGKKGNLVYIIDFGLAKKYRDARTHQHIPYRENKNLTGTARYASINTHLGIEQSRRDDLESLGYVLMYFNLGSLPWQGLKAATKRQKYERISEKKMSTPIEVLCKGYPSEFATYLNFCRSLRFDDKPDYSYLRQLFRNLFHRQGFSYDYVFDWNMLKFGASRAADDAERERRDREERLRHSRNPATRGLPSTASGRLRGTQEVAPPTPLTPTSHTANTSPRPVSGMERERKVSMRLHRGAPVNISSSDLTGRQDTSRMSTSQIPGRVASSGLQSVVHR
Sequence of Mitogen-activated protein kinase kinase kinase 1 (Q13233 whole entry): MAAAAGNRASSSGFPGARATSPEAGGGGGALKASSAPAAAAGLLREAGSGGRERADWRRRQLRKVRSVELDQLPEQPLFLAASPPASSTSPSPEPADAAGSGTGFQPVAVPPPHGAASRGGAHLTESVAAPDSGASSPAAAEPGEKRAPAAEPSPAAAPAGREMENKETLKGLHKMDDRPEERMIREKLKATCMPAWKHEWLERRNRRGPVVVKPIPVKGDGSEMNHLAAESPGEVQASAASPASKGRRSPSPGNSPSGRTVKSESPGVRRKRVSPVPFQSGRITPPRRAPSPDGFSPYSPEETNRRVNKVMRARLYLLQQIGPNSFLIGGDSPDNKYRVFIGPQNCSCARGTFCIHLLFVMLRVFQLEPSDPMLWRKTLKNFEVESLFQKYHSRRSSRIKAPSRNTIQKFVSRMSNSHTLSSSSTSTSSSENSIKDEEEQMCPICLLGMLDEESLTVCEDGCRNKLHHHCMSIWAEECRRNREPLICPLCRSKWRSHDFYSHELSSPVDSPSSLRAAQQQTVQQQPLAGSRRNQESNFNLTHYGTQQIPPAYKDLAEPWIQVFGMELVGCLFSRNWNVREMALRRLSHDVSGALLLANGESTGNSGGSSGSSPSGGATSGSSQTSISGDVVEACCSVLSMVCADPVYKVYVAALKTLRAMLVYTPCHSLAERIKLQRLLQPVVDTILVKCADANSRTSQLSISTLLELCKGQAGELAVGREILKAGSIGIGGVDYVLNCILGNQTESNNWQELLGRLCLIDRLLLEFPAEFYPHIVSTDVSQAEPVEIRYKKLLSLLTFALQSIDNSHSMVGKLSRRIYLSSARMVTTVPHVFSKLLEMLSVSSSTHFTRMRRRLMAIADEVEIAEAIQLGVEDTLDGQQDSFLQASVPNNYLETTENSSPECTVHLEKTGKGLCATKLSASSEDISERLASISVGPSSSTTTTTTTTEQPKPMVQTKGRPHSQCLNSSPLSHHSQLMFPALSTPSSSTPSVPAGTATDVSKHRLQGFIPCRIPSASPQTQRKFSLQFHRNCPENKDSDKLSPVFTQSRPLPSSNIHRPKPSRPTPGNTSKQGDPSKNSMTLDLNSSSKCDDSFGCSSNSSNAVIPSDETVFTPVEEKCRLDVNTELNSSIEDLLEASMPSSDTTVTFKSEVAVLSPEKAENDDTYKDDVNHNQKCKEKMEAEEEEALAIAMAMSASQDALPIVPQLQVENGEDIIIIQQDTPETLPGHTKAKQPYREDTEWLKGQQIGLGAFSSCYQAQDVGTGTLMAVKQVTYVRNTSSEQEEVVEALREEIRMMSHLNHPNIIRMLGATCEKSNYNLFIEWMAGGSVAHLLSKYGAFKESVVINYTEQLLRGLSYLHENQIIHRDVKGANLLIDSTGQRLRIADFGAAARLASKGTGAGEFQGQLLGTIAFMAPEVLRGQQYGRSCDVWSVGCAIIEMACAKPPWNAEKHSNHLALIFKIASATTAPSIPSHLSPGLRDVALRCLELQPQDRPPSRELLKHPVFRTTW
Sequence of Hepatocyte growth factor receptor (P08581 whole entry): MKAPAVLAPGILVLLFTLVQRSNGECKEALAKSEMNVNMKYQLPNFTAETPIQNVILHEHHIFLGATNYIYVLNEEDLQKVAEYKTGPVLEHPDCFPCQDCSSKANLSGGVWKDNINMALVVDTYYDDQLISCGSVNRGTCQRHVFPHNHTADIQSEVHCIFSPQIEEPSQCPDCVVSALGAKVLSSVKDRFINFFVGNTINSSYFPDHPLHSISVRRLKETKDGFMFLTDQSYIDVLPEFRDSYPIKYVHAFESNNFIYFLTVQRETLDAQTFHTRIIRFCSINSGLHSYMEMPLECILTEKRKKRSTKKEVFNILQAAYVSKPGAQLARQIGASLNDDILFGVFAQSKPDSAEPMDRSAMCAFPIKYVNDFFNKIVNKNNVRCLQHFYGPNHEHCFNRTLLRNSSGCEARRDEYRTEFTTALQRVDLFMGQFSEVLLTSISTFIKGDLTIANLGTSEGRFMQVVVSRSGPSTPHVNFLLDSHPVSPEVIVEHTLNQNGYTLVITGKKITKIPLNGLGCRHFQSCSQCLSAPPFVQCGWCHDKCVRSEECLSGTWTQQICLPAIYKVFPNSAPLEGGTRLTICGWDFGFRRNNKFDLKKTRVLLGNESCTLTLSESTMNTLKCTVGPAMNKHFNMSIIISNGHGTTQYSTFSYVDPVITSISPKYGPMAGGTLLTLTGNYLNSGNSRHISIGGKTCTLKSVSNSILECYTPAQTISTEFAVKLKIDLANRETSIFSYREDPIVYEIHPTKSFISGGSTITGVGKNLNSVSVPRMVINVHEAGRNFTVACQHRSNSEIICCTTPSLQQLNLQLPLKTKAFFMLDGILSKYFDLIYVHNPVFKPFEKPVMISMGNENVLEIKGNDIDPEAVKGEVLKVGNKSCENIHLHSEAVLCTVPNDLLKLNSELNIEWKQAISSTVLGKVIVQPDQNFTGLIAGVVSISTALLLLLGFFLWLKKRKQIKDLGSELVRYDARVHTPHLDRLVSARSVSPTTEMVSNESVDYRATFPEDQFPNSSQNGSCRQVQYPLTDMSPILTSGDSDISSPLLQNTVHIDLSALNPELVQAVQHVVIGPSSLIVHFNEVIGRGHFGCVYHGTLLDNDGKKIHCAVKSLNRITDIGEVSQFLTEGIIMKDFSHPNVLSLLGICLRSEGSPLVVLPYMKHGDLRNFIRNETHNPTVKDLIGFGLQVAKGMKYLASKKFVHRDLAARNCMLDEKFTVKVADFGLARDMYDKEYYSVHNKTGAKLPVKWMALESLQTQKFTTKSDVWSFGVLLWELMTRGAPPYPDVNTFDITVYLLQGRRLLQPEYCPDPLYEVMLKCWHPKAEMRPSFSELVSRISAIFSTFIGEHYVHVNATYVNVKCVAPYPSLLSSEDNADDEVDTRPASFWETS

- IC50 [1]: 0.025 µM
Compound: COc1ccc(-c2coc3ccc(-c4nnc(SCc5ccc(OC)c(C(F)(F)F)c5)o4)cc23)cc1

- IC50 [1]: 0.0031 µM
Compound: COc1ccc(CSc2nnc(-c3ccc4ncsc4c3)o2)cc1C(F)(F)F

- IC50 [1]: > 10 µM
Compound: Fc1cccc(COc2nnc(-c3ccc4c(c3)CCO4)o2)c1

- IC50 [1]: 0.013 µM
Compound: COc1ccc(CSc2nnc(-c3ccc4c(c3)CCO4)o2)cc1Cl

- IC50 [1]: 0.2 µM
Compound: Clc1ccccc1CSc1nnc(-c2ccc3c(c2)CCO3)o1

- IC50 [1]: 0.0049 µM
Compound: COc1ccc(CSc2nnc(-c3ccc4occc4c3)o2)cc1C(F)(F)F

- IC50 [1]: 0.68 µM
Compound: Fc1cccc(SCc2nnc(-c3ccc4c(c3)CCO4)o2)c1

- IC50 [1]: 0.054 µM
Compound: Fc1cccc(CSc2nnc(-c3ccc4c(c3)CCO4)o2)c1

- IC50 [2]: > 10 µM
- bioavailability [3]: 1.7%
- IC50 [4]: > 10 µM
- IC50 [5]: > 10 µM
- IC50 [6]: > 10 µM
- IC50 [7]: 8.1 µM
- IC50 [8]: > 10 µM
- clearance [9]: 2.14 L/h/kg
- IC50 [1]: 0.0023 µM
- IC50 [10]: > 10 µM
- IC50 [11]: 4.6 µM
- IC50 [12]: > 10 µM
- IC50 [13]: > 10 µM
- IC50 [14]: 3.5 µM
- IC50 [15]: > 10 µM
- IC50 [16]: > 10 µM
- IC50 [17]: > 10 µM
- IC50 [18]: > 10 µM
- AUC [19]: 7.9 ng·h/mL
- IC50 [20]: > 10 µM
- IC50 [21]: > 10 µM
- IC50 [22]: > 10 µM
- Vdss [23]: 1.453 L/kg
- IC50 [24]: > 10 µM
- IC50 [25]: > 10 µM
- IC50 [26]: > 10 µM
- IC50 [27]: > 10 µM
Compound: COc1ccc(-n2cnc3ccc(-c4nnc(SCc5cccc(C#N)c5)o4)cc32)cc1

- IC50 [1]: 0.33 µM
Compound: Fc1cccc(CNc2nnc(-c3ccc4c(c3)CCO4)o2)c1

- IC50 [1]: 0.0035 µM
Compound: COc1ccc(-c2coc3ccc(-c4nnc(SCc5cccc(C#N)c5)o4)cc23)cc1

- IC50 [1]: 0.016 µM
Compound: COc1ccc(CSc2nnc(-c3ccc4[nH]ncc4c3)o2)cc1C(F)(F)F

- IC50 [1]: 0.22 µM
Compound: COc1ccc(CSc2nnc(-c3ccc4c(c3)CCO4)o2)cc1

- IC50 [1]: 0.0084 µM
Compound: COc1ccc(-c2coc3ccc(-c4nnc(SCc5cccc(C(F)(F)F)c5)o4)cc23)cc1

- IC50 [1]: 0.018 µM
Compound: COc1ccc(CSc2nnc(-c3ccc4ncccc4c3)o2)cc1C(F)(F)F

- IC50 [1]: 0.094 µM
Compound: Clc1cccc(CSc2nnc(-c3ccc4c(c3)CCO4)o2)c1

- IC50 [1]: 0.068 µM
Compound: FC(F)(F)c1cccc(CSc2nnc(-c3ccc4c(c3)CCO4)o2)c1

- IC50 [1]: 0.0057 µM
Compound: COc1ccc(CSc2nnc(-c3ccc4c(c3)CCO4)o2)cc1C(F)(F)F

- IC50 [1]: 0.091 µM
Compound: N#Cc1cccc(CSc2nnc(-c3ccc4c(c3)CCO4)o2)c1

- IC50 [1]: 0.34 µM
Compound: Fc1cccc(CCc2nnc(-c3ccc4c(c3)CCO4)o2)c1

- IC50 [1]: 0.044 µM
Compound: COc1ccc(CSc2nnc(-c3ccc4c(c3)CCO4)o2)cc1F

- IC50 [1]: 0.01 µM
Compound: O=[N+]([O-])c1ccc(NCCNc2ncc(-c3ncc[nH]3)c(-c3ccc(Cl)cc3Cl)n2)nc1

- IC50 [1]: 0.21 µM
Compound: c1ccc(CSc2nnc(-c3ccc4c(c3)CCO4)o2)cc1

- IC50 [1]: 0.028 µM
Compound: COc1ccc(CSc2nnc(-c3ccc4c(c3)CCO4)o2)cc1C#N

- IC50 [1]: 0.28 µM
Compound: Clc1ccc(CSc2nnc(-c3ccc4c(c3)CCO4)o2)cc1

- IC50 [1]: 0.0094 µM
Compound: Cn1cnc2ccc(-c3nnc(SCc4cccc(C(F)(F)F)c4)o3)cc21

- IC50 [1]: 0.0025 µM
Compound: COc1ccc(-n2cnc3ccc(-c4nnc(SCc5cccc(C(F)(F)F)c5)o4)cc32)cc1

- IC50 [1]: 0.63 µM
Compound: COC(=O)c1cccc(CSc2nnc(-c3ccc4c(c3)CCO4)o2)c1

- IC50 [1]: 0.0086 µM
Compound: COc1ccc(-n2cnc3ccc(-c4nnc(SCc5ccc(OC)c(C(F)(F)F)c5)o4)cc32)cc1
